Measurements taken from patent publication US20020086278A1, “CHROMOGENIC MEDIA CONTAINING BLOOD OR HEMIN” (priority 1999, published 2002).
Entries after “also recorded” stand apart in the source; their conditions may differ. Where two headings read alike, the source gives them in different places.

Key:
S. pneumoniae (stpn) = assay: Example 3: colony color on chromogenic TSA II with 5% sheep blood (chromogen in medium); format: cell-based; settings: for Colony Color on Various Chromogenic TSA II with 5% Sheep Blood: CO2, 18 h
E. coli 25922 = assay: Example 2: effect of incubation conditions on colony color formation; format: cell-based, Escherichia coli; settings: 0.004 g/plate
[1] = tested on: Staphylococcus Coag Neg (step); assay: Example 3: colony color on chromogenic TSA II with 5% sheep blood (chromogen in medium); format: cell-based; settings: for Colony Color on Various Chromogenic TSA II with 5% Sheep Blood: CO2, 18 h
[2] = tested on: Aeromonas hydrophilia (aehy); assay: as above; format: cell-based; settings: for Colony Color: CO2, 18 h
[3] = tested on: Streptococcus agalactiae (stag); assay: as above; format: cell-based; settings: chromogenic TSA II with 5% Sheep Blood, 0.1 g/l; 3 strains tested
[4] = tested on: Branhamella catarrhalis 25238; assay: Example 1: growth and colony color on plates surface-spread with chromogen; format: cell-based; settings: TSA Plain; B. catt 25258
S. agalactiae 12386 = assay: Example 2: effect of incubation conditions on colony color formation; format: cell-based, Streptococcus agalactiae; settings: 0.004 g/plate, 24 h, CO2
[5] = tested on: Citrobacter freundii (cifr); assay: Example 3: colony color on chromogenic TSA II with 5% sheep blood (chromogen in medium); format: cell-based; settings: for Colony Color: CO2, 18 h
N. gonorrhoeae 35201 = assay: Example 1: growth and colony color on plates surface-spread with chromogen; format: cell-based; settings: Summary of Table I; N. gonorrhoeae 35201
[6] = tested on: Pseudomonas aeruginosa (psae); assay: Example 3: colony color on chromogenic TSA II with 5% sheep blood (chromogen in medium); format: cell-based; settings: for Colony Color: CO2, 18 h
Salmonella spp. (sasp) = format: cell-based; settings: for Colony Color: CO2, 18 h
E. faecium (enfu) = assay: Example 3: colony color on chromogenic TSA II with 5% sheep blood (chromogen in medium); format: cell-based
[7] = tested on: Klebsiella pneumoniae (klpn); assay: as above; format: cell-based; settings: for Colony Color: CO2, 18 h
milu 9341 = assay: as above; format: cell-based; settings: CO2, 18 h
S. milleri (stmi) = assay: as above; format: cell-based
[8] = tested on: Serratia marcescens (sema); assay: as above; format: cell-based
S pyogenes (stpy) = assay: as above; format: cell-based; settings: CO2, 18 h
[9] = tested on: Gardnerella vaginalis 14019; assay: Example 1: growth and colony color on plates surface-spread with chromogen; format: cell-based; settings: Summary of Table I; G. vaginalis 14014
[10] = tested on: Staphylococcus aureus (stau); assay: Example 3: colony color on chromogenic TSA II with 5% sheep blood (chromogen in medium); format: cell-based
[11] = tested on: Branhamella catarrhalis (brca); assay: as above; format: cell-based; settings: for Colony Color: CO2, 18 h
[12] = tested on: Entercoccus faecalis (enfa); assay: as above; format: cell-based; settings: for Colony Color: CO2, 18 h
Group B Strep. 12386 = assay: Example 1: growth and colony color on plates surface-spread with chromogen; format: cell-based; settings: for Color: Group B Strep 12386
[13] = chromogenic TSA II with 5% Sheep Blood, 0.1 g/l, 6 strains tested
[14] = chromogenic TSA II with 5% Sheep Blood, 0.1 g/l, 5 strains tested
[15] = chromogenic TSA II with 5% Sheep Blood, 0.1 g/l, 3 strains tested
[16] = chromogenic TSA II with 5% Sheep Blood, 0.1 g/l, 2 strains tested
[17] = chromogenic TSA II with 5% Sheep Blood, 0.1 g/l, 1 strain tested

O=C(O)[C@H]1O[C@@H](Oc2c[nH]c3ccc(Br)c(Cl)c23)[C@H](O)[C@@H](O)[C@@H]1O [X-Glucuro, X-Glucuronide]
Colony Color (Summary) (S. pneumoniae (stpn); [13]): 0
Colony Color on Various Chromogenic TSA II with 5% Sheep Blood (S. pneumoniae (stpn); stpn t259): 0
Colony Color on Various Chromogenic TSA II with 5% Sheep Blood (S. pneumoniae (stpn); stpn t260): 0
Colony Color on Various Chromogenic TSA II with 5% Sheep Blood (S. pneumoniae (stpn); stpn t331): 0
Colony Color on Various Chromogenic TSA II with 5% Sheep Blood (S. pneumoniae (stpn); stpn t628): 0
Colony Color (E. coli 25922; Chocolate II Agar, 24 h, air): blue (d)
Colony Color (E. coli 25922; TSA II 5% Sheep Blood, 24 h, air): blue (d)
Colony Color (E. coli 25922; TSA II 5% Sheep Blood, 5 d, ANA): blue (m)
Colony Color (E. coli 25922; TSA II 5% Sheep Blood, 5 d, MA): blue (m)
Colony Color (Summary) [1, 14]: 0
Colony Color on Various Chromogenic TSA II with 5% Sheep Blood ([1]; step 12228): 0
Colony Color on Various Chromogenic TSA II with 5% Sheep Blood ([1]; step cdc1): 0
Colony Color on Various Chromogenic TSA II with 5% Sheep Blood ([1]; step cdc4): 0
Colony Color on Various Chromogenic TSA II with 5% Sheep Blood ([1]; stha cdc2): 0
Colony Color on Various Chromogenic TSA II with 5% Sheep Blood ([1]; stsa cdc3): 0
Colony Color ([2]; aehy 7965): 0
Colony Color ([2]; aehy 7966): 0
Colony Color ([2]; aehy 49847): 0
Colony Color (Summary) [2, 15]: 0
Colony Color (Summary) [3]: 0
Growth [4]: >>
Colony Color (S. agalactiae 12386; Chocolate II Agar): blue (d)
Colony Color (S. agalactiae 12386; TSA II 5% Sheep Blood): blue (d)
Colony Color (Summary) [5, 16]: 0
Colony Color ([5]; cifr 8454): 0
Colony Color ([5]; cifr 33128): 0
Substrates Producing Growth Inhibition (N. gonorrhoeae 35201): X-Glucuro
Colony Color (Summary) [6, 15]: 0
Colony Color ([6]; psae 9027): 0
Colony Color ([6]; psae 15442): 0
Colony Color ([6]; psae 33607): 0
Colony Color (Summary) (Salmonella spp. (sasp); [16]): 0
Colony Color (Salmonella spp. (sasp); saty 19430): 0
Colony Color (Salmonella spp. (sasp); satym 14028): 0
Colony Color (Summary) (E. faecium (enfu); [17]): 0
Colony Color (E. faecium (enfu); enfu 49032, CO2, 18 h): 0
Colony Color (Summary) [7, 15]: 0
Colony Color ([7]; klpn 13883): 0
Colony Color ([7]; klpn 33495): 0
Colony Color ([7]; klpn 33606): 0
Colony Color (milu 9341): ly
Colony Color (Summary) (S. milleri (stmi); [16]): 0
Colony Color on Various Chromogenic TSA II with 5% Sheep Blood (S. milleri (stmi); stmi 6242, CO2, 18 h): 0
Colony Color (Summary) [8, 17]: 0
Colony Color ([8]; sema 13880, CO2, 18 h): 0
Colony Color on Various Chromogenic TSA II with 5% Sheep Blood (S pyogenes (stpy); stpy 51339): db beta
Colony Color on Various Chromogenic TSA II with 5% Sheep Blood (S pyogenes (stpy); stpy t027): 0
Colony Color on Various Chromogenic TSA II with 5% Sheep Blood (S pyogenes (stpy); stpy t028): 0
Colony Color on Various Chromogenic TSA II with 5% Sheep Blood (S pyogenes (stpy); stpy t029): 0
Colony Color on Various Chromogenic TSA II with 5% Sheep Blood (S pyogenes (stpy); stpy t030): 0
Substrates Producing Growth Inhibition [9]: Glucuro
Colony Color (Summary) [10, 14]: 0
Colony Color ([10]; stau 25923, CO2, 18 h): 0
Colony Color on Various Chromogenic TSA II with 5% Sheep Blood ([10]; stau t006, CO2, 18 h): 0
Colony Color on Various Chromogenic TSA II with 5% Sheep Blood ([10]; stau t007, CO2, 18 h): 0
Colony Color on Various Chromogenic TSA II with 5% Sheep Blood ([10]; stau t008, CO2, 18 h): 0
Colony Color on Various Chromogenic TSA II with 5% Sheep Blood ([10]; stau t009, CO2, 18 h): 0
Colony Color ([11]; brca 25238): 0
Colony Color ([11]; brca 25240): 0
Colony Color (Summary) [11, 16]: 0
Colony Color (Summary) [12, 13]: 0
Colony Color ([12]; enfa 597): 0
Colony Color ([12]; enfa 10741): 0
Colony Color ([12]; enfa 12953): 0
Colony Color ([12]; enfa 14506): 0
Colony Color ([12]; enfa 29212): 0
Color (Group B Strep. 12386; Choc II): blue
Substrates Producing Color (Group B Strep. 12386; Summary of Table I, Group B Strep. 12386): Glucuro
Color (Group B Strep. 12386; TSA II 5SB): blue with beta hemolysis; also recorded: blue (a)
Color (Group B Strep. 12386; TSA Plain): blue
